{"source": "patent US8962691B2", "about": "“Retinoid replacements and opsin agonists and methods for the use thereof” (University of Washington, priority 2003, dated 2015)", "key": {"[1]": {"tested_on": "Rpe65−/− mice", "experiment": "Light and electron microscopy of RPE-ROS interface", "format": "in vivo, mouse", "description": "Eye cups were prepared by removing the anterior segment and vitreous. […] “Thin” sections (1.0 μm) were stained with Richardson's blue solution (1%) and subjected to light microscopy. “Ultrathin” sections (0.05 μm) were stained with uranyl acetate/lead citrate and subjected to electron microscopy."}, "[2]": {"tested_on": "Rpe65−/− mice", "experiment": "Mouse flicker electroretinograms", "format": "in vivo", "description": "Mice were dark-reared from birth and anesthetized (ketaject/xylaject, 65 mg/kg intraperitoneally), and the pupils were dilated with tropicamide (1%). […] The mice were placed in a Ganzfield chamber, and flicker recordings were obtained from one eye."}, "[3]": {"molecular_target": "T1, phosphorylated opsin (Mus musculus, UniProt P15409)", "T1 construct": "The retinas from Rpe65+/+ mice and Rpe65−/− mice were fixed in constant darkness; from tissue; host or cells: retina sections of Rpe65-/- and Rpe65+/+ mice (in vivo dosing)", "T1 sequence (P15409 whole entry)": "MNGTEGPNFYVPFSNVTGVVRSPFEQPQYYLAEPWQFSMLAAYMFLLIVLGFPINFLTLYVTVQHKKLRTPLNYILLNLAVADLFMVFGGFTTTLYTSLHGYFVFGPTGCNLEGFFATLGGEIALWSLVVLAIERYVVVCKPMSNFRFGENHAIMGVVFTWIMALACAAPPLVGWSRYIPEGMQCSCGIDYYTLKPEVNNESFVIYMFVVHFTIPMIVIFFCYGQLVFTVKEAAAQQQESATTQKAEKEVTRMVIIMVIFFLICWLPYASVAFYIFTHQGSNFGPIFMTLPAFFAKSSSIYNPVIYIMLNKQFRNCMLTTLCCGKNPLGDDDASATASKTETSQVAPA", "experiment": "Immunocytochemistry with anti-phosphorylated Rh antibody", "format": "in vivo", "settings": "gavaged once at PND 30, analyzed 48 hours post-treatment, dark", "description": "Rpe65 mice were divided into five groups: Rpe65−/−, Rpe65−/− that were gavaged with 9-cis-retinal and kept in the dark; Rpe65−/− that were gavaged with 9-cis-retinal, exposed to a flash, and kept in the dark for 15 min; Rpe65+/+ that were kept in the dark; and Rpe65+/+ that were exposed to a flash and kept in the dark for 15 minutes. For the flash studies, dark-adapted mice were subjected to a flash (Sunpak 433D, 1 ms) from a distance of 2 cm. The retinas were fixed in 4% paraformalydehyde in 0.13 M sodium phosphate, pH 7.4, for 15 hours at 4° C., and the tissues were transferred to 5, 10, or 15% sucrose in 0.13 M sodium phosphate, pH 7.4, for 30 minutes each time and stored overnight in 20% sucrose in the same buffer at 4° C. The tissue was then transferred to optimal cutting temperature cryoembedding compound and sectioned at 10 μm. The cryosections were incubated overnight at 4° C. in mouse monoclonal anti-phosphorylated Rh A11-82P antibody diluted 1:10. Triton X-100 (0.1%) was included in all phosphate-buffered saline solutions to facilitate antibody penetration. The controls were processed by omitting primary antibodies from the incubation buffer. After incubation in primary antibodies, the sections were rinsed with phosphate-buffered saline and then incubated with indocarbocyanine (Cy3)-conjugated goat anti-mouse IgG (1:200). […]"}}, "data": [{"compound": "CC1=C(/C=C/C(C)=C\\C=C\\C(C)=C\\C=O)C(C)(C)CCC1", "note": "[9-cis-retinal]", "values": [{"measurement": "filling of RPE vacuoles (lipid-like droplets)", "setting": "[1]; early treated mice, over several months", "value": "only partially filled"}, {"measurement": "interface contacts between the RPE and ROS", "setting": "[1]; young animals or young adults treated", "value": "improved"}, {"measurement": "time rod retinal function is supported post-treatment", "setting": "[2]; early intervention, Rpe65−/− mice", "value": "more than 6 months"}, {"measurement": "gain in ERG sensitivity over untreated mice", "setting": "[2]; eight weeks after single 2.5 mg", "value": 2.1, "unit": "logarithmic units"}, {"measurement": "flicker ERG peak amplitude", "setting": "[2]; eight weeks after single 2.5 mg, at 0.059 cd·s/m^2", "value": "137.3±24.4", "unit": "μV"}, {"measurement": "flicker ERG peak amplitude", "setting": "[2]; eight weeks after single 2.5 mg, at 13 cd·s/m^2", "value": "40.0±7.1", "unit": "μV"}, {"measurement": "persistence of partial recovery of ERG sensitivity", "setting": "[2]; treated once at PND 30", "value": "more than 12 weeks"}, {"measurement": "ROS labeling by antibody against phosphorylated opsin", "setting": "[3]", "value": "abolished"}]}]}
